Results taken from PubChem BioAssay AID1963844 (Molecular Pharmacology Branch, DTP, NCI, 2024).

System: 422866-222-R5-J1-PDC complex spheroid viability
Experiment: Anticancer human tumor 422866-222-R5-J1-PDC patient-derived pancreatic adenocarcinoma cell line growth inhibition [POLQ]
Details: for IC50: curve of first compound; for viability, T/C: stronger effect = lower value
How it was run: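 Patient-derived tumour cells were co-cultured with HUVEC and mesenchymal stem cells as multicellular spheroids at 37 °C. They were treated with POLQ inhibitors (novobiocin, ART-558, RP6685) alone or combined with other agents. Top concentrations were at or near clinical Cmax (otherwise 10 microM; SN-38 at 1 microM), decreasing in half-log steps.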

[1] = second compound 0.0316 µM, first compound 0.0316 µM
[2] = second compound 0.0316 µM, first compound 0.1 µM
[3] = second compound 0.0316 µM, first compound 0.316 µM
[4] = second compound 0.0316 µM, first compound 1 µM
[5] = second compound 0.0316 µM, first compound 3.16 µM
[6] = second compound 0.0316 µM, first compound 10 µM
[7] = second compound 0.1 µM, first compound 0.0316 µM
[8] = second compound 0.1 µM, first compound 0.1 µM
[9] = second compound 0.1 µM, first compound 0.316 µM
[10] = second compound 0.1 µM, first compound 1 µM
[11] = second compound 0.1 µM, first compound 3.16 µM
[12] = second compound 0.1 µM, first compound 10 µM
[13] = second compound 0.316 µM, first compound 0.0316 µM
[14] = second compound 0.316 µM, first compound 0.1 µM
[15] = second compound 0.316 µM, first compound 0.316 µM
[16] = second compound 0.316 µM, first compound 1 µM
[17] = second compound 0.316 µM, first compound 3.16 µM
[18] = second compound 0.316 µM, first compound 10 µM
[19] = second compound 1 µM, first compound 0.0316 µM
[20] = second compound 1 µM, first compound 0.1 µM
[21] = second compound 1 µM, first compound 0.316 µM
[22] = second compound 1 µM, first compound 1 µM
[23] = second compound 1 µM, first compound 3.16 µM
[24] = second compound 1 µM, first compound 10 µM
[25] = second compound 3.16 µM, first compound 0.0316 µM
[26] = second compound 3.16 µM, first compound 0.1 µM
[27] = second compound 3.16 µM, first compound 0.316 µM
[28] = second compound 3.16 µM, first compound 1 µM
[29] = second compound 3.16 µM, first compound 3.16 µM
[30] = second compound 3.16 µM, first compound 10 µM
[31] = second compound 10 µM, first compound 0.0316 µM
[32] = second compound 10 µM, first compound 0.1 µM
[33] = second compound 10 µM, first compound 0.316 µM
[34] = second compound 10 µM, first compound 1 µM
[35] = second compound 10 µM, first compound 3.16 µM
[36] = second compound 10 µM, first compound 10 µM
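Further: spheroids exposed to compounds for one week before readout.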
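Wherever viability, T/C is given: percent of DMSO vehicle wells luminescence so 100% = untreated viability.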

C#Cc1c(F)ccc2cc(O)cc(-c3ncc4c(N5CC6CCC(C5)N6)nc(OCC56CCCN5CC(F)C6)nc4c3F)c12 (stereo unspecified) + COC1C(OC(N)=O)C(O)C(Oc2ccc3c(O)c(NC(=O)c4ccc(O)c(CC=C(C)C)c4)c(=O)oc3c2C)OC1(C)C
IC50 (second compound 0.0316 µM): 0.715 µM
IC50 (second compound 0.1 µM): 0.78 µM
IC50 (second compound 0.316 µM): 0.75 µM
IC50 (second compound 1 µM): 0.859 µM
IC50 (second compound 3.16 µM): 0.664 µM
IC50 (second compound 10 µM): 0.81 µM
viability, T/C [1]: 95.7%
viability, T/C [2]: 78.9%
viability, T/C [3]: 59.6%
viability, T/C [4]: 46.2%
viability, T/C [5]: 35.9%
viability, T/C [6]: 29.8%
viability, T/C [7]: 92.5%
viability, T/C [8]: 86.3%
viability, T/C [9]: 66.5%
viability, T/C [10]: 46.1%
viability, T/C [11]: 34.2%
viability, T/C [12]: 32.8%
viability, T/C [13]: 99.5%
viability, T/C [14]: 85.8%
viability, T/C [15]: 66.2%
viability, T/C [16]: 45.2%
viability, T/C [17]: 31.4%
viability, T/C [18]: 28.8%
viability, T/C [19]: 106%
viability, T/C [20]: 102%
viability, T/C [21]: 73.4%
viability, T/C [22]: 46.9%
viability, T/C [23]: 37%
viability, T/C [24]: 32%
viability, T/C [25]: 93.3%
viability, T/C [26]: 93.9%
viability, T/C [27]: 67.1%
viability, T/C [28]: 40.9%
viability, T/C [29]: 36.9%
viability, T/C [30]: 30.3%
viability, T/C [31]: 96.1%
viability, T/C [32]: 86.1%
viability, T/C [33]: 64.7%
viability, T/C [34]: 47.6%
viability, T/C [35]: 33.7%
viability, T/C [36]: 29.4%

CC(C)n1c(=O)n(C)c2cnc3cc(F)c(-c4ccc(OCCCN5CCCCC5)nc4)cc3c21 + COC1C(OC(N)=O)C(O)C(Oc2ccc3c(O)c(NC(=O)c4ccc(O)c(CC=C(C)C)c4)c(=O)oc3c2C)OC1(C)C
IC50 (second compound 0.0316 µM): < 0.0316 µM
IC50 (second compound 0.1 µM): < 0.0316 µM
IC50 (second compound 0.316 µM): < 0.0316 µM
IC50 (second compound 1 µM): < 0.0316 µM
IC50 (second compound 3.16 µM): < 0.0316 µM
IC50 (second compound 10 µM): < 0.0316 µM
viability, T/C [1]: 40.7%
viability, T/C [2]: 36.1%
viability, T/C [3]: 34.5%
viability, T/C [4]: 38.5%
viability, T/C [5]: 39.4%
viability, T/C [6]: 37.2%
viability, T/C [7]: 42.6%
viability, T/C [8]: 38.5%
viability, T/C [9]: 39.1%
viability, T/C [10]: 37.8%
viability, T/C [11]: 36.9%
viability, T/C [12]: 36.2%
viability, T/C [13]: 40.6%
viability, T/C [14]: 36.1%
viability, T/C [15]: 42.4%
viability, T/C [16]: 44.7%
viability, T/C [17]: 34%
viability, T/C [18]: 30.2%
viability, T/C [19]: 34.6%
viability, T/C [20]: 45.8%
viability, T/C [21]: 37.2%
viability, T/C [22]: 38.6%
viability, T/C [23]: 39.2%
viability, T/C [24]: 32.1%
viability, T/C [25]: 44%
viability, T/C [26]: 40%
viability, T/C [27]: 42.3%
viability, T/C [28]: 33.4%
viability, T/C [29]: 35.4%
viability, T/C [30]: 39.6%
viability, T/C [31]: 39.1%
viability, T/C [32]: 39%
viability, T/C [33]: 38.8%
viability, T/C [34]: 43.4%
viability, T/C [35]: 35.2%
viability, T/C [36]: 32.6%

CC1COCCN1c1cc(C2(S(C)(=N)=O)CC2)nc(-c2ccnc3[nH]ccc23)n1 (stereo unspecified) + COC1C(OC(N)=O)C(O)C(Oc2ccc3c(O)c(NC(=O)c4ccc(O)c(CC=C(C)C)c4)c(=O)oc3c2C)OC1(C)C
IC50 (second compound 0.0316 µM): 2.67 µM
IC50 (second compound 0.1 µM): 2.91 µM
IC50 (second compound 0.316 µM): 2.83 µM
IC50 (second compound 1 µM): 2.94 µM
IC50 (second compound 3.16 µM): 2.56 µM
IC50 (second compound 10 µM): 4.12 µM
viability, T/C [1]: 102%
viability, T/C [2]: 111%
viability, T/C [3]: 88.4%
viability, T/C [4]: 75.6%
viability, T/C [5]: 43.9%
viability, T/C [6]: 34.1%
viability, T/C [7]: 104%
viability, T/C [8]: 103%
viability, T/C [9]: 91.6%
viability, T/C [10]: 75.4%
viability, T/C [11]: 46.6%
viability, T/C [12]: 34.8%
viability, T/C [13]: 95.8%
viability, T/C [14]: 91%
viability, T/C [15]: 92.5%
viability, T/C [16]: 71.8%
viability, T/C [17]: 48%
viability, T/C [18]: 44.1%
viability, T/C [19]: 91.3%
viability, T/C [20]: 97.7%
viability, T/C [21]: 101%
viability, T/C [22]: 69.4%
viability, T/C [23]: 54.9%
viability, T/C [24]: 39.8%
viability, T/C [25]: 107%
viability, T/C [26]: 99%
viability, T/C [27]: 104%
viability, T/C [28]: 77.7%
viability, T/C [29]: 44.4%
viability, T/C [30]: 39.8%
viability, T/C [31]: 97.1%
viability, T/C [32]: 99.5%
viability, T/C [33]: 112%
viability, T/C [34]: 75.5%
viability, T/C [35]: 58.7%
viability, T/C [36]: 33%
